Laboratory results as given in patent US20090306009A1, “Modulation of the P2Y2 Receptor Pathway” (P2-SCIENCE APS, priority 2005, published 2009).
“Also recorded” adds a separate entry of the source. Like-named read-outs stand apart in the source and are kept apart here.

Columns and labels:
[1] = system: resting leg of healthy male subjects; test: Leg haemodynamic responses to intrafemoral artery infusion of purinergic vasodilators alone and combined with tyramine; assay type: in vivo, human; details: for effect on increased sympathetic vasoconstrictor activity evoked by tyramine: infusion in the resting leg; for leg vasoconstriction caused by tyramine during vasodilator infusion: tyramine added to the infusion of the named vasodilator; for effect of tyramine on leg vascular conductance during vasodilator infusion / effect of tyramine on LBF during vasodilator infusion: tyramine added to vasodilator infusion; for effect of tyramine on LBF during vasodilator infusion: P=0.53; for leg a-v O2 difference during vasodilator infusion: vasodilator alone; for leg a-v O2 difference during vasodilator infusion / leg a-v O2 difference during combined vasodilator and tyramine infusion / leg blood flow (LBF) during vasodilator infusion / leg blood flow (LBF) during combined vasodilator and tyramine infusion: mean±S.E.M.; for leg a-v O2 difference during combined vasodilator and tyramine infusion: vasodilator plus tyramine; for leg blood flow (LBF) during vasodilator infusion: intrafemoral artery infusion of vasodilator alone, resting leg, rest about 0.5; for leg blood flow (LBF) during combined vasodilator and tyramine infusion: vasodilator plus tyramine about 13.2 μmol/min
Protocol: This study was performed in nine healthy male subjects from Denmark. The subjects were fully informed of any risks and discomforts associated with the experiments before giving their informed written consent to participate. The studies conformed to the code of Ethics of the World Medical Association (Declaration of Helsinki) and were approved by the Ethics Committee for Copenhagen and Frederiksberg communities.
Subjects reported to the laboratory at 8 a.m. or 1 p.m., following the ingestion of a light breakfast or lunch. Upon arrival, they rested in a supine position while three catheters were placed under local anaesthesia (1% lidocaine) into the femoral artery and vein of the right leg and in the femoral artery of the left leg using the Seldinger technique. The femoral artery and vein catheters were positioned 1-2 cm distal from the inguinal ligament. A thermistor (Edslab probe 94-0.3-2.5F) to measure venous blood temperature was inserted through the femoral venous catheter orientated in the anterograde direction for the determination of femoral venous blood flow. Femoral venous blood flow (an index of leg blood flow (LBF)) was determined by the constant infusion thermodilution technique (Andersen & Saltin, 1985 J Physiol. 366:233-49; González-Alonso et al. 2000 J Physiol. 524:603-15; Am J Physiol Heart Circ Physiol. 278(2):H321-30). LBF represents the average of two measurements made 1-2 min after the start of exercise and 1-2 min after the start of infusion of ATP, adenosine or tyramine. Arterial blood pressure was continuously monitored by a pressure transducer (Pressure Monitoring Kit, Baxter) at the level of inguinal region and calculated by integration of the pressure curve. Heart rate was determined from an electrocardiogram. All data were continuously recorded using a Powerlab system (ADInstruments, Sydney, Australia).
Leg blood flow (LBF) and mean arterial pressure (MAP) was measured during […] purinergically-induced hyperaemic conditions: (1) Intrafemoral artery infusion of adenosine (vasodilator control), (2) sequential intraarterial infusion of AMP, ADP, ATP or UTP (vasodilators), and (3), comparing the responses with the combined infusion with the vasoconstrictor drug tyramine, which evokes endogenous release of noradrenaline from sympathetic nerve endings.
Adenosine (Item Development AB, Stocksund, Sweden) was dissolved in isotonic saline (1.25 mg ml^−1) and infused at a rate of 16 μmol min^−1. AMP (Sigma) was dissolved in isotonic saline and infused at 71 μmol/min, ADP (Sigma) was dissolved in isotonic saline at […], ATP (Sigma) was dissolved in isotonic saline at 1 μmol/^min and UTP (Sigma) was dissolved in isotonic saline 1 μmol min^−1
95:2370-4; J Physiol. 547:971-6).
(§1) The combined infusion of adenosine and tyramine was to evoke a vasoconstrictor response in the resting leg of about 50%, without causing increases in arterial blood pressure, as previously documented in the Leg (Rosenmeier et al. 2004 J. Physiol. 558:351-365). Tyramine (Sigma T-2879) dissolved in isotonic saline (0.52 mg ml-1) was infused at a rate of about 13.2 μmol/min through all the tyramine trials.
The subjects first received separate infusions of adenosine, AMP, ADP, ATP or UTP for 4 min followed by combined infusions of vasodilator and tyramine for an additional 4 min.
Plasma noradrenaline and adrenaline concentrations were determined with high performance liquid chromatography with electrochemical detection (Hallman et al. 1978 Life Sci. 23(10):1049-52). Arterial and femoral haemoglobin concentration and O2 saturation were determined spectrophotometrically (OSM-3 Hemoximeter, Radiometer). PO2 was determined with the Astrup technique (ABL 5, Radiometer, Copenhagen, Denmark).
Leg vascular conductance was calculated as the quotient between LBF and mean arterial pressure. Leg O2 delivery was calculated by multiplying LBF by arterial O2 content. […]

leg blood flow [2] = test: Maximal nucleotide-induced vasodilatation at rest relative to peak LBF during maximal bicycling exercise; assay type: in vivo, human
Source text: Maximal UTP-induced vasodilatation was investigated at rest accounted for […] of the peak LBF during maximal bicycling exercise in comparison to the 78% increase in LBF previously registered for ATP (Rosenmeier et al. 2004 J. Physiol. 558:351-365).

leg blood flow [3] = details: previously registered, Rosenmeier et al. 2004; cited from earlier work
resting leg = test: Tyramine infusion alone in the resting leg (separate studies); assay type: in vivo, human; details: tyramine about 13.2 μmol/min, no vasodilator
Protocol: as §1

[4] = vasodilator alone versus combined with tyramine

| Compound | effect on increased sympathetic vasoconstrictor activity evoked by tyramine [1] | leg vasoconstriction caused by tyramine during vasodilator infusion [1] | effect of tyramine on leg vascular conductance during vasodilator infusion [1] | effect of tyramine on LBF during vasodilator infusion [1] | change of leg a-v O2 difference on addition of tyramine [1, 4] | leg a-v O2 difference during vasodilator infusion [1] | leg a-v O2 difference during combined vasodilator and tyramine infusion [1] | maximal vasodilatation as share of peak LBF during maximal bicycling exercise (leg blood flow [2]) | maximal vasodilatation as share of peak LBF during maximal bicycling exercise (leg blood flow [3]) | leg blood flow (LBF) during vasodilator infusion [1] | leg VO2, vasodilator alone versus with tyramine [1, 4] | leg blood flow (LBF) during combined vasodilator and tyramine infusion [1] | reduction of blood flow by tyramine infusion (resting leg) |
| --- | --- | --- | --- | --- | --- | --- | --- | --- | --- | --- | --- | --- | --- |
| O=c1ccn([C@@H]2O[C@H](COP(=O)(O)OP(=O)(O)OP(=O)(O)O)[C@@H](O)[C@H]2O)c(=O)[nH]1 [UTP] | fully blunts | 0% | did not alter; also recorded: no reduction | did not alter; also recorded: no reduction | Absolutely no change; also recorded: unchanged | 7.1±0.9 ml l^−1 | 7.1±1.5 ml l^−1 | 50% | – | – | – | – | – |
| Nc1ncnc2c1ncn2[C@@H]1O[C@H](COP(=O)(O)OP(=O)(O)OP(=O)(O)O)[C@@H](O)[C@H]1O [ATP] | fully blunts | 0% | did not alter; also recorded: no reduction | did not alter; also recorded: no reduction | Absolutely no change; also recorded: unchanged | 7.9±1.7 ml l^−1 | 5.7±1.6 ml l^−1 | – | 78% | – | – | – | – |
| Nc1ncnc2c1ncn2[C@@H]1O[C@H](COP(=O)(O)OP(=O)(O)O)[C@@H](O)[C@H]1O [ADP] | does not; also recorded: substantial vasoconstrictor response | 30% | – | – | – | 6.0+1 ml l^−1 | – | – | – | 3.34 ± 0.4 L/min | statistically significantly different | 2.3 ± 0.3 L/min | – |
| NCCc1ccc(O)cc1 [tyramine] | – | – | – | – | – | – | – | – | – | – | – | – | 44±3% |
| Nc1ncnc2c1ncn2[C@@H]1O[C@H](CO)[C@@H](O)[C@H]1O [adenosine] | does not; also recorded: substantial vasoconstrictor response | 56% | – | – | elevated | 7.7±0.5 ml l^−1 | 26.0±2.2 ml l^−1 | – | – | 3.8 ± 0.3 L/min | – | 1.7 ± 0.2 L/min | – |
| Nc1ncnc2c1ncn2[C@@H]1O[C@H](COP(=O)(O)O)[C@@H](O)[C@H]1O [AMP] | does not; also recorded: substantial vasoconstrictor response | 53% | – | – | elevated | 4.5±0.5 ml l^−1 | 15.3±3.1 ml l^−1 | – | – | 3.7 ± 0.4 L/min | – | 1.7 ± 0.2 L/min | – |
